What follows are molecules tested against T1, recombinant human NK3 receptor (Homo sapiens, UniProt P29371) (assay: [3H]SR142801 competition binding assay). Conditions: [3H]SR142801, membranes from HEK293 cells transiently expressing recombinant human NK3 receptor; read-out: hNK3 Ki.
T1 construct: expressed in transfected cells; host or cells: HEK293 cells (transient expression), membranes
T1 sequence (P29371 1-465): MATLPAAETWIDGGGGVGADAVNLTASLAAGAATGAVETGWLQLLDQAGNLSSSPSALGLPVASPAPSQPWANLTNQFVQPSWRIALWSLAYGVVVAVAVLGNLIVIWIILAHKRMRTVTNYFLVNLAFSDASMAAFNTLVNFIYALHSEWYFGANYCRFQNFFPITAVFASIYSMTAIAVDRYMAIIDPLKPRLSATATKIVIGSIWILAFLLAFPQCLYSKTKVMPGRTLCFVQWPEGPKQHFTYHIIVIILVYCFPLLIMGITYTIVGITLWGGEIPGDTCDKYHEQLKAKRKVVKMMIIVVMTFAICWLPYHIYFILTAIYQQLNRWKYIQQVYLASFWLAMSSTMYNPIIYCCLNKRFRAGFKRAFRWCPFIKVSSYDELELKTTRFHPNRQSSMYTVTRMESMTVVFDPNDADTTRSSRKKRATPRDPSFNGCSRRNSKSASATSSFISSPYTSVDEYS
Protocol: [^3H]SR142801 Competition Binding Assay
hNK3 receptor binding experiment were performed using [^3H]SR142801 (Catalog No. TRK1035, specific activity: 74.0 Ci/mmol, Amersham, GE Healthcare UK limited, Buckinghamshire, UK) and membrane isolated from HEK293 cells transiently expressing recombinant human NK3 receptor. After thawing, the membrane homogenates were centrifuged at 48,000×g for 10 min at 4° C., the pellets were resuspended in the 50 mM Tris-HCl, 4 mM MnCl2, 1 μM phosphoramidon, 0.1% BSA binding buffer at pH 7.4 to a final assay concentration of 5 μg protein/well. For inhibition experiments, membranes were incubated with [^3H]SR142801 at a concentration equal to KD value of radioligand and 10 concentrations of the inhibitory compound (0.0003-10 μM) (in a total reaction volume of 500 μl) for 75 min at room temperature (RT). At the end of the incubation, membranes were filtered onto unitfilter (96-well white microplate with bonded GF/C filter preincubated 1 h in 0.3% PEI+0.3% BSA, Packard BioScience, Meriden, Conn.) with a Filtermate 196 harvester (Packard BioScience) and washed 4 times with ice-cold 50 mM Tris-HCl, pH 7.4 buffer. Nonspecific binding was measured in the presence of 10 μM SB222200 for both radioligands. The radioactivity on the filter was counted (5 min) on a Packard Top-count microplate scintillation counter with quenching correction after addition of 45 μl of microscint 40 (Canberra Packard S. A., Zürich, Switzerland) and shaking for 1 h. Inhibition curves were fitted according to the Hill equation: y=100/(1+(x/IC50)^nH), where nH=slope factor using Excel-fit 4 software (Microsoft). IC50 values were derived from the inhibition curve and the affinity constant (Ki) values were calculated using the Cheng-Prussoff equation Ki=IC50/(1+[L]/KD) where [L] is the concentration of radioligand and KD is its dissociation constant at the receptor, derived from the saturation isotherm. All experiments were performed in duplicate and the mean±standard error (SEM) of the individual Ki values was calculated.

SMILES	Ki
C[C@@H]1CN(CCC(C)(C(=O)NCc2cc(F)ccc2C(F)(F)F)c2ccc(Cl)c(Cl)c2)CCN1S(C)(=O)=O (stereo partly drawn) [Example 44, 2-(3,4-Dichloro-phenyl)-N-(5-fluoro-2-trifluoromethyl-benzyl)-4-((R)-4-methanesulfonyl-3-methyl-piperazin-1-yl)-2-methyl-butyramide]	212 nM
CN(Cc1cccc(F)c1)C(=O)C(CCN1CCN(S(C)(=O)=O)CC1)c1ccc(Cl)c(Cl)c1 (stereo not shown) [Example 7, 2-(3,4-Dichloro-phenyl)-N-(3-fluoro-benzyl)-4-(4-methanesulfonyl-piperazin-1-yl)-N-methyl-butyramide]	388 nM
C[C@H]1CN(CCC(C)(C(=O)N(C)Cc2ccc(Cl)c(Cl)c2)c2ccc(Cl)c(Cl)c2)CCN1S(C)(=O)=O (stereo partly drawn) [Example 71, N-(3,4-Dichloro-benzyl)-2-(3,4-dichloro-phenyl)-4-((S)-4-methanesulfonyl-3-methyl-piperazin-1-yl)-2,N-dimethyl-butyramide]	12.5 nM
C[C@@H]1CN(CCC(C)(C(=O)N(C)Cc2ccccc2Cl)c2ccc(Cl)c(Cl)c2)CCN1S(C)(=O)=O (stereo partly drawn) [Example 49, N-(2-Chloro-benzyl)-2-(3,4-dichloro-phenyl)-4-((R)-4-methanesulfonyl-3-methyl-piperazin-1-yl)-2,N-dimethyl-butyramide]	88 nM
CC(CCN1CCN(S(C)(=O)=O)CC1)(C(=O)N[C@H](CO)c1ccc(F)cc1)c1ccc(Cl)c(Cl)c1 (stereo partly drawn) [Example 133, 2-(3,4-Dichloro-phenyl)-N-[(S)-1-(4-fluoro-phenyl)-2-hydroxy-ethyl]-4-(4-methanesulfonyl-piperazin-1-yl)-2-methyl-butyramide]	397 nM
CC(CCN1CCN(S(C)(=O)=O)CC1)(C(=O)N[C@@H](CO)c1ccc(Cl)cc1)c1ccc(Cl)c(Cl)c1 (stereo partly drawn) [Example 130, N-[(R)-1-(4-Chloro-phenyl)-2-hydroxy-ethyl]-2-(3,4-dichloro-phenyl)-4-(4-methanesulfonyl-piperazin-1-yl)-2-methyl-butyramide]	39.9 nM
COc1ccc(CN(C)C(=O)C(C)(CCN2CCN(S(C)(=O)=O)[C@@H](C)C2)c2ccc(Cl)c(Cl)c2)cc1F (stereo partly drawn) [Example 62, 2-(3,4-Dichloro-phenyl)-N-(3-fluoro-4-methoxy-benzyl)-4-((S)-4-methanesulfonyl-3-methyl-piperazin-1-yl)-2,N-dimethyl-butyramide]	216 nM
COc1ccc(CN(C)C(=O)C(C)(CCN2CCN(S(C)(=O)=O)CC2)c2ccc(Cl)c(Cl)c2)cc1F (stereo not shown) [Example 25, 2-(3,4-Dichloro-phenyl)-N-(3-fluoro-4-methoxy-benzyl)-4-(4-methanesulfonyl-piperazin-1-yl)-2,N-dimethyl-butyramide]	134 nM
CN(Cc1cccc(C(F)(F)F)c1)C(=O)C(C)(CCN1CCCN(S(C)(=O)=O)CC1)c1ccc(Cl)c(Cl)c1 (stereo not shown) [Example 101, 2-(3,4-Dichloro-phenyl)-4-(4-methanesulfonyl-[1,4]diazepan-1-yl)-2,N-dimethyl-N-(3-trifluoromethyl-benzyl)-butyramide]	18.4 nM
CN(Cc1ccc(C(F)(F)F)nc1)C(=O)C(C)(CCN1CCCN(S(C)(=O)=O)CC1)c1ccc(Cl)c(Cl)c1 (stereo not shown) [Example 125, 2-(3,4-Dichloro-phenyl)-4-(4-methanesulfonyl-[1,4]diazepan-1-yl)-2,N-dimethyl-N-(6-trifluoromethyl-pyridin-3-ylmethyl)-butyramide]	275 nM
CC(NC(=O)C(C)(CCN1CCCN(S(C)(=O)=O)CC1)c1ccc(Cl)c(Cl)c1)c1ccc(Cl)cc1 (stereo not shown) [Example 119, N-[1-(4-Chloro-phenyl)-ethyl]-2-(3,4-dichloro-phenyl)-4-(4-methanesulfonyl-[1,4]diazepan-1-yl)-2-methyl-butyramide]	121 nM
COc1ccc(C(NC(=O)C(C)(CCN2CCN(S(C)(=O)=O)CC2)c2ccc(Cl)c(Cl)c2)C2CC2)cc1 (stereo not shown) [Example 15, N-[Cyclopropyl-(4-methoxy-phenyl)-methyl]-2-(3,4-dichloro-phenyl)-4-(4-methanesulfonyl-piperazin-1-yl)-2-methyl-butyramide]	234 nM
CC(CCN1CCN(S(C)(=O)=O)CC1)(C(=O)NCc1ccc(Cl)c(F)c1)c1ccc(Cl)c(Cl)c1 (stereo not shown) [Example 30, N-(4-Chloro-3-fluoro-benzyl)-2-(3,4-dichloro-phenyl)-4-(4-methanesulfonyl-piperazin-1-yl)-2-methyl-butyramide]	133 nM
C[C@@H]1CN(CCC(C)(C(=O)NCc2ccc(C(F)(F)F)nc2)c2ccc(Cl)c(Cl)c2)CCN1S(C)(=O)=O (stereo partly drawn) [Example 92, 2-(3,4-Dichloro-phenyl)-4-((R)-4-methanesulfonyl-3-methyl-piperazin-1-yl)-2-methyl-N-(6-trifluoromethyl-pyridin-3-ylmethyl)-butyramide]	582 nM
CC(CCN1CCN(S(C)(=O)=O)CC1)(C(=O)NCc1ccc(OC(F)(F)F)cc1)c1ccc(Cl)c(Cl)c1 (stereo not shown) [Example 17, 2-(3,4-Dichloro-phenyl)-4-(4-methanesulfonyl-piperazin-1-yl)-2-methyl-N-(4-trifluoromethoxy-benzyl)-butyramide]	146 nM
CC(CCN1CCCN(S(C)(=O)=O)CC1)(C(=O)NCc1ccc(C(F)(F)F)c(F)c1)c1ccc(Cl)c(Cl)c1 (stereo not shown) [Example 95, 2-(3,4-Dichloro-phenyl)-N-(3-fluoro-4-trifluoromethyl-benzyl)-4-(4-methanesulfonyl-[1,4]diazepan-1-yl)-2-methyl-butyramide]	64.3 nM
CN(Cc1cccc(F)c1)C(=O)C(C)(CCN1CCCN(S(C)(=O)=O)CC1)c1ccc(Cl)c(Cl)c1 (stereo not shown) [Example 100, 2-(3,4-Dichloro-phenyl)-N-(3-fluoro-benzyl)-4-(4-methanesulfonyl-[1,4]diazepan-1-yl)-2,N-dimethyl-butyramide]	96.5 nM
C[C@@H]1CN(CCC(C)(C(=O)NCc2cc(C(F)(F)F)ccc2F)c2ccc(Cl)c(Cl)c2)CCN1S(C)(=O)=O (stereo partly drawn) [Example 46, 2-(3,4-Dichloro-phenyl)-N-(2-fluoro-5-trifluoromethyl-benzyl)-4-((R)-4-methanesulfonyl-3-methyl-piperazin-1-yl)-2-methyl-butyramide]	99.5 nM
C[C@H]1CN(CCC(C)(C(=O)NCc2cc(F)ccc2C(F)(F)F)c2ccc(Cl)c(Cl)c2)CCN1S(C)(=O)=O (stereo partly drawn) [Example 74, 2-(3,4-Dichloro-phenyl)-N-(5-fluoro-2-trifluoromethyl-benzyl)-4-((S)-4-methanesulfonyl-3-methyl-piperazin-1-yl)-2-methyl-butyramide]	496 nM
CC(CCN1CCN(S(C)(=O)=O)CC1)(C(=O)NCc1ccc(C(F)(F)F)cc1)c1ccc(Cl)c(Cl)c1 (stereo not shown) [Example 27, 2-(3,4-Dichloro-phenyl)-4-(4-methanesulfonyl-piperazin-1-yl)-2-methyl-N-(4-trifluoromethyl-benzyl)-butyramide]	82 nM
CC(CCN1CCN(S(C)(=O)=O)CC1)(C(=O)NCc1ccccc1OC(F)(F)F)c1ccc(Cl)c(Cl)c1 (stereo not shown) [Example 19, 2-(3,4-Dichloro-phenyl)-4-(4-methanesulfonyl-piperazin-1-yl)-2-methyl-N-(2-trifluoromethoxy-benzyl)-butyramide]	429 nM
COc1ccc(C(NC(=O)C(C)(CCN2CCN(S(C)(=O)=O)[C@@H](C)C2)c2ccc(Cl)c(Cl)c2)C2CC2)cc1 (stereo partly drawn) [Example 63, N-[Cyclopropyl-(4-methoxy-phenyl)-methyl]-2-(3,4-dichloro-phenyl)-4-((S)-4-methanesulfonyl-3-methyl-piperazin-1-yl)-2-methyl-butyramide]	65.7 nM
